Entries after “also recorded” stand apart in the source; their conditions may differ.
Columns and labels:
[1] = test system: BALB/c mice; assay: Survival study after LPS challenge (sepsis); assay type: in vivo; conditions: for Percent of death after LPS challenges, 24 h: Saline + LPS 36.4; for Percent of death after LPS challenges, 36 h: Saline + LPS 72.7; for Percent of death after LPS challenges, 48 h / Percent of death after LPS challenges, 72 h / Percent of death after LPS challenges, 144 h: Saline + LPS 90.9; for Percent of death after LPS challenges, 12 h: Saline + LPS 0; for rate of mortality/death after LPS challenge (in words): in comparison of LPS challenged group without pretreatment (mortality 90.9%)
Description: Treatment were given intraperitoneally for 3 consecutive days. One hour after the 3rd day treatments, LPS (15 mg/kg) was administered intraperitoneally. The animals were monitored. Survival rate was then recorded every 12 h for 144 hours.

[2] = test system: LPS-induced RAW264.7 cells; assay: NO production (DAF-FM DA probe, Griess assay); assay type: cell-based
Description: (§1) Macrophages were treated without or with (R)/(S)-salbutamol for 1 h prior to LPS stimulation and subsequently incubated for 12 h. […] The fluorescence of the oxidized product (2′,7′-dichlorofluorescein, DCF) was assessed using an LSM710 Laser Scanning Confocal Microscope (Carl Zeiss, Jena, Germany). The concentration of NO in the culture supernatant was measured by assaying the concentrations of nitrite (a stable NO breakdown product) using the Griess assay (Beyotime, Shanghai, China), according to the manufacturer's instructions. The intracellular NO level was detected using the NO-sensitive fluorescence probe DAF-FM DA (Sigma, St. Louis, Mo., USA) (24). Cells were labeled with DAF-FM DA (10 μM) at 37° C. for 30 min and were gently washed three times with PBS. Fluorescence was detected using a LSM710 Laser Scanning Confocal Microscope (Scale bars, 100 μm) (Carl Zeiss, Jena, Germany).
In addition, the concentration of NO in the culture supernatant was measured by assaying the concentrations of nitrite (a stable NO breakdown product) using the Griess assay. […] To investigate (R)-salbutamol role on the level of iNOS, the mRNA and protein levels of iNOS were determined.

[3] = test system: macrophages from the peritoneal fluid; assay: LPS-induced proliferation and polarization of macrophages from the peritoneal fluid (sepsis); assay type: in vivo
Description: Macrophage activation and proliferation was considered to be the key step of initiation and development of sepsis. In one embodiment, LPS (PAMPs from bacteria) induced a proliferation and polarization of macrophages from the peritoneal fluid. […] These inhibitory effects can be blocked by using specific β2-recepter blocker.

[4] = test system: LPS-induced RAW264.7 cells; assay: Seahorse analysis of OCR and ECAR; assay type: cell-based; conditions: LPS-treated cells
Description: as §1
Macrophage activation elicited different metabolic profiles. LPS-induced macrophages adopted glycolytic metabolic profiles. This invention disclosed a β2 adrenergic receptor mediated Warburg metabolism (aerobic glycolysis) of in LPS treated macrophages. The OCR and ECAR were measured using an extracellular flux analyzer. […] ECAR is a measurement extracellular acidification rate, an indication of cellular glycolytic rate.

## CC(C)(C)NC[C@H](O)c1ccc(O)c(CO)c1 [R-salbutamol, (R)-Salbutamol]
[1]; 0.1 mg/kg + LPS
  Percent of death after LPS challenges, 24 h: 20%
  Percent of death after LPS challenges, 36 h: 20%
  Percent of death after LPS challenges, 48 h: 40%
  Percent of death after LPS challenges, 72 h: 40%
  Percent of death after LPS challenges, 144 h: 40%
[1]; 0.1 mg/kg i.p. 3 days + LPS 15 mg/kg
  Percent of death after LPS challenges, 12 h: 0%
[1]; 0.5 mg/kg + LPS
  Percent of death after LPS challenges, 12 h: 0%
  Percent of death after LPS challenges, 24 h: 0%
  Percent of death after LPS challenges, 36 h: 0%
  Percent of death after LPS challenges, 48 h: 0%
  Percent of death after LPS challenges, 72 h: 0%
  Percent of death after LPS challenges, 144 h: 0%
[1]; 0.5 mg/kg + saline (no LPS)
  Percent of death, 12 h: 0%
  Percent of death, 24 h: 0%
  Percent of death, 36 h: 0%
  Percent of death, 48 h: 0%
  Percent of death, 72 h: 0%
  Percent of death, 144 h: 0%
[1]
  rate of mortality/death after LPS challenge (in words): survived
[1]; listed as (R)-salbutamol
  rate of mortality/death after LPS challenge (in words): greatly reduced or even diminished
[2]; LPS-induced cells
  production/levels of NO (in words): significantly decreased; also recorded: inhibited
[2]; pretreated before LPS, LPS increased by 424% vs control
  decrease of the level of DAF fluorescence (intracellular NO): 2.68 fold
[2]; pretreatment before LPS, LPS increased 20.25-fold vs control
  decrease of NO2- expression (Griess assay, culture supernatant): 2.28 fold
[3]; LPS sepsis
  number of macrophages from the peritoneal fluid: significantly reduced toward normal level
[3]; in comparison of sepsis condition
  polarized M1 macrophages or M2 macrophages: significant reduction
[4]
  ECAR, aerobic glycolysis: inhibited the aerobic glycolysis; also recorded: significantly reduced aerobic glycolysis

— US20220362174A1, “Use of R-enantiomer Beta2-agonists for prevent and treatment of pulmonary inflammation and inflammatory remodeling for reduced adverse effects” (priority 2019, published 2022)
